Source: BindingDB's records for doi:10.7270/Q2S75DRW (Burnham Center For Chemical Genomics, 2008)

Target: Heat shock 70 kDa protein 1A (Homo sapiens, UniProt V9GZ37)
Assay: Hsp70 inhibitors, SAR follow-up, biochemical, fluorescence polarization (AID 1072)

Heat shock 70 kDa protein 1A, sequence (V9GZ37 whole entry): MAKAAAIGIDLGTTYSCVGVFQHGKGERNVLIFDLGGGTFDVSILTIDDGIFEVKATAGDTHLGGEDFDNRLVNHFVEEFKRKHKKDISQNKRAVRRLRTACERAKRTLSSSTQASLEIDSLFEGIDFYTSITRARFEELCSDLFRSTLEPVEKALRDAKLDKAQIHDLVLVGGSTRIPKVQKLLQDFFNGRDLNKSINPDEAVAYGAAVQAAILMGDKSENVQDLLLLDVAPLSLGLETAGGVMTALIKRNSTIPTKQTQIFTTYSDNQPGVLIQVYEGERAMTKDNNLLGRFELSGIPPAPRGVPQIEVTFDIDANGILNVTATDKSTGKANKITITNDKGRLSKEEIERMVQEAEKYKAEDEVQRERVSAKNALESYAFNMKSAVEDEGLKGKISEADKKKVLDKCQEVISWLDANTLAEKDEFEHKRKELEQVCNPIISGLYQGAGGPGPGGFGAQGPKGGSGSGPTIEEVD

## O=C1C=C2CC3(O)CCc4c(ccc(O)c4O)C3=C2CC1=O (stereo unspecified) [3,4,6a,10-tetrakis(oxidanyl)-6,7-dihydro-5H-benzo[g]fluoren-9-one]
  IC50: 34.2 µM
